Laboratory results: paper PMC7352759, “S(+)-(2E)-N-(2-Hydroxypropyl)-3-Phenylprop-2-Enamide (KM-568): A Novel Cinnamamide Derivative with Anticonvulsant Activity in Animal Models of Seizures and Epilepsy” (International Journal of Molecular Sciences, 2020)

Key:
mice = test: Maximal electroshock test (MES), mice; format: in vivo; conditions: for ED50: Mus musculus, 95% confidence interval in parentheses
Method: In vivo activity testing was performed at the Epilepsy Branch, National Institute of Neurological Disorders and Stroke, National Institutes of Health (NIH, Bethesda, USA) within the Anticonvulsant Screening Program (ASP) (currently known as the Epilepsy Therapy Screening Program (ETSP)). Pharmacological evaluation was planned and performed in accordance with the Institute of Laboratory Resources polices on the humane care of laboratory animals and approved by the University of Utah’s Institutional Animal Care and Use Committee (IACUC). All testing protocols were previously published as well as they are available on the NIH website. In the tests, albino mice Carworth Farms No.1 (CF-1) (Charles River), C57/Bl6 mice (Charles River), Frings mice (University of Utah) or male rats Sprague–Dawley (Charles River) were used. All animals were housed, fed, and handled in a manner consistent with the recommendations in the National Council Publication, ‘Guide for the Care and Use of Laboratory animals’ [51]. The tested compound was suspended in 0.5% methylcellulose.
After intraperitoneal or oral administration of compound KM-568 at certain dose, an alternating current at 60 Hz and 50 mA (mice) or 150 mA (rats) was delivered for 0.2 sec via corneal electrodes to induce seizures. Prior to each stimulation, a drop of 0.5% tetracaine hydrochloride in saline was applied to cornea. Protection was defined as the abolition of the hindlimb tonic extension of the seizures.

[1] = Neurotoxicity (TOX), behavioral tests, rats; format: in vivo; conditions: rat, in vivo
Method: (§1) In mice, the neurological deficit was measured by the rotarod test in which a 1 inch diameter knurled plastic rod rotating at 6 rpm was used. Tests were performed at 0.25 h or 0.5 h of intraperitoneal or oral administration of the certain dose of the compounds KM-568. Each mouse was placed on the rod. If the animal was not able to remain on the rod for at least 1 min in each of three trials, the neurotoxicity was scored. In rats, the neurological deficit was measured in behavioral tests and scored when ataxia and loss of placing response and muscle tone were observed. Tests in rats were performed after 0.5 h of intraperitoneal administration or 1.0 h of oral administration of the certain dose of compound KM-568. TD50s were calculated by probit analysis.

rats = test: Neurotoxicity (TOX), behavioral tests, rats; format: in vivo
Method: as §1

H9c2 cells = test: MTT cytotoxicity assay, H9c2; format: cell-based, rat
Method: Human liver cancer HepG2 cell line (ATCC HB8065) and rat cardiomyoblast cell line H9c2 (ATCC-CRL1446) were purchased in ATCC (American Type Culture Collection, Manassas, VA, USA). The cells were cultured in standard conditions (37 °C, 5% CO2) in EMEM medium (ATCC, Manassas, VA, USA), supplemented with 10% FBS (Gibco, Waltham, MA, USA) and antibiotics (1% streptomycin/penicillin mixture, Sigma–Aldrich, Darmstadt, Germany) or DMEM high glucose (ATCC, Manassas, VA, USA) supplemented with 10% FBS (Gibco, Waltham, MA, USA) and antibiotics (1% streptomycin/penicillin mixture, Sigma–Aldrich, Darmstadt, Germany), respectively.
The MTT colorimetric assay was used to determine the cytotoxic effects of the KM-568 and DOX (Sigma–Aldrich, Darmstadt, Germany). Cells were seeded at a density of 1 × 10^4 in 96-well plates. Following overnight culture, the cells were then treated with KM-568 and DOX in concentration range 0.1–200 µM (hepatocytotoxicity) or 0.1–100 µM (cardiocytotoxicity). Following cell exposure to each drug for 24 h in 96 well plates, 10 µL MTT reagent (Sigma–Aldrich, Darmstadt, Germany) was added to each well; after 4 h of incubation (37 °C, 5% CO2), the medium was aspirated and formazan produced in cells appeared as dark crystals in the bottom of the wells. […] Then, absorbance was measured at 570 nm on a multi-well plate reader (Spectra Max iD3, Molecular Devices, San Jose, CA, USA). […]

C[C@H](O)CNC(=O)/C=C/c1ccccc1 [KM-568, S(+)-(2E)-N-(2-hydroxypropyl)-3-phenylprop-2-enamide]
ED50 (mice; ip, 0.25 h): 44.5 mg/kg
ED50 (mice; po, 0.5 h): 86.6 mg/kg
MES Results (protected/tested animals) (mice; i.p., 25 mg/kg, 0.25 h): 0/8
MES Results (protected/tested animals) (mice; i.p., 38 mg/kg, 0.25 h): 1/8
MES Results (protected/tested animals) (mice; i.p., 41 mg/kg, 0.25 h): 0/8
MES Results (protected/tested animals) (mice; i.p., 42 mg/kg, 0.25 h): 2/8
MES Results (protected/tested animals) (mice; i.p., 44 mg/kg, 0.25 h): 5/8
MES Results (protected/tested animals) (mice; i.p., 50 mg/kg, 0.25 h): 7/8
MES Results (protected/tested animals) (mice; p.o., 50 mg/kg, 0.5 h): 0/8
MES Results (protected/tested animals) (mice; p.o., 60 mg/kg, 0.5 h): 2/8
MES Results (protected/tested animals) (mice; p.o., 70 mg/kg, 0.5 h): 2/8
MES Results (protected/tested animals) (mice; p.o., 90 mg/kg, 0.5 h): 3/8
MES Results (protected/tested animals) (mice; p.o., 120 mg/kg, 0.5 h): 7/8
MES Results (protected/tested animals) (mice; p.o., 150 mg/kg, 0.5 h): 8/8
TD50 at 0.5 h ([1]; ip, 0.5 h, 95% confidence interval in parentheses): 95.2 mg/kg
TD50 at 1 h ([1]; po, 1.0 h): > 500 mg/kg
TOX Results (animals displaying neurotoxicity/animals used) (rats; i.p., 60 mg/kg, 0.5 h): 0/8
TOX Results (animals displaying neurotoxicity/animals used) (rats; i.p., 80 mg/kg, 0.5 h): 0/8
TOX Results (animals displaying neurotoxicity/animals used) (rats; i.p., 100 mg/kg, 0.5 h): 2/8
TOX Results (animals displaying neurotoxicity/animals used) (rats; i.p., 120 mg/kg, 0.5 h): 5/8
TOX Results (animals displaying neurotoxicity/animals used) (rats; i.p., 140 mg/kg, 0.5 h): 7/8
TOX Results (animals displaying neurotoxicity/animals used) (rats; p.o., 125.0 mg/kg, 1.0 h): 0/2
TOX Results (animals displaying neurotoxicity/animals used) (rats; p.o., 250.0 mg/kg, 1.0 h): 0/2
TOX Results (animals displaying neurotoxicity/animals used) (rats; p.o., 500.0 mg/kg, 1.0 h): 0/2
percent of living cells (H9c2 cells; H9c2, 24 h incubation with 100 µM): ~100%
cytotoxic effect, MTT assay (H9c2 cells; H9c2, up to 100 µM, 24 h): no cytotoxic effect
